Ends that are not written are not given here.
Key:
OxR2 = biological target: T1, OxR2 (Homo sapiens, UniProt O43614); assay: BRET/eBRET beta-arrestin 2 recruitment to OxR2/Rluc or OxR2/Rluc8 without IG3 (pcDNA3); format: cell-based; details: OxR2/Rluc8 + barr2/Venus + pcDNA3; FIG. 18
T1 construct: expressed in transfected cells; host or cells: HEK293 (HEK293FT)
T1 sequence (O43614 1-444): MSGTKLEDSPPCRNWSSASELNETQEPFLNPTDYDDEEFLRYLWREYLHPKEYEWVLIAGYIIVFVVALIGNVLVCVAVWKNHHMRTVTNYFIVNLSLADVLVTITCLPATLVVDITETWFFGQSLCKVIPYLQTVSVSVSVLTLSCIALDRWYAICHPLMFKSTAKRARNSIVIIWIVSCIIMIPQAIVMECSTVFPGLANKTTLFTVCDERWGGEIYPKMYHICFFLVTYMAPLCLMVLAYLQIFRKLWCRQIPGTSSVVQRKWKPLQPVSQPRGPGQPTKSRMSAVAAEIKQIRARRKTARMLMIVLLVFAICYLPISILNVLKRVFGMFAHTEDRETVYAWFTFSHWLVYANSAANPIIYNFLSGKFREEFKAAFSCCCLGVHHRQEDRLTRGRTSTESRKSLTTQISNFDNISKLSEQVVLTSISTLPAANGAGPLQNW
Protocol: (§1) Briefly, referring to FIGS. 1 to 3, the IGs are provided in the form of the two receptors (TRHR and OxR). One of the two is attached to an RC (IG1-RC1, IG3). A second IG (IG2-RC2) is derived from a molecule that interacts with the receptors upon ligand binding (e.g. beta-arrestin, or a mutant thereof).
Cells were seeded in 6-well plates at a density of approximately 630,000 cells/well (HEK293FT) or approximately 150,000 cells/well (COS-7) and maintained at 37° C., 5% CO2 in Complete Media (DMEM containing 0.3 mg/ml glutamine, 100 IU/ml penicillin and 100 μg/ml streptomycin (Gibco)) supplemented with 10% fetal calf serum (FCS; Gibco). […] Filtered light emissions were sequentially measured for 3-5 s in each of the ‘donor wavelength window’ (400-475 nm) and ‘acceptor wavelength window’ (>500 nm for EGFP or 520-540 nm for EYFP, Topaz (TYFP) or Venus). […] In this case, data are shown as ‘fluorescence/luminescence’ being the ratio of light emission through the ‘acceptor wavelength window’ over the 400-475 nm emission for a particular cell sample. Unless otherwise stated, BRET signals were measured in 96-well microplates.
Referring now to FIG. 18, eBRET signals were measured from cells transiently co-expressing OxR2/Rluc8 and barr2/Venus either with HA-TRHR or pcDNA3.

[1] = test system: thyrotropin releasing hormone receptor/orexin receptor hetero-dimer/-oligomer (TRHR with OxR2); assay: eBRET/BRET detection of TRHR-OxR2 association: TRHR/Rluc + tagged beta-arrestin + OxR2 as IG3 in HEK293 cells; format: cell-based
Protocol: as §1
Cells were seeded in 6-well plates at a density of approximately 630,000 cells/well (HEK293FT) or approximately 150,000 cells/well (COS-7) and maintained at 37° C., 5% CO2 in Complete Media (DMEM containing 0.3 mg/ml glutamine, 100 IU/ml penicillin and 100 μg/ml streptomycin (Gibco)) supplemented with 10% fetal calf serum (FCS; Gibco). Transient transfections were carried out 24 h after seeding using GeneJuice (Novagen) or Metafectene (Biontex) according to manufacturer instructions. 24 h post-transfection, cells were washed with PBS, detached using 0.05% trypsin/0.53 mM EDTA, resuspended in HEPES-buffered phenol red free Complete Media containing 5% FCS and added to a poly-L-lysine-coated white microplate (Nunc). 48 h post-transfection, eBRET assays were carried out following pre-incubation of cells with EnduRen™ (Promega) at a final concentration of 30-40 μM, at 37° C., 5% CO2 for 2 h. For original BRET studies, the HEPES-buffered phenol red free Complete Media was replaced with PBS and coelenterazine h (Molecular Probes) added to a final concentration of 5 μM immediately prior to commencing the assay. […] Filtered light emissions were sequentially measured for 3-5 s in each of the ‘donor wavelength window’ (400-475 nm) and ‘acceptor wavelength window’ (>500 nm for EGFP or 520-540 nm for EYFP, Topaz (TYFP) or Venus). The BRET signal observed between interacting proteins is normalized by subtracting the background BRET ratio. […] In the following examples, the first calculation will be used, unless the signal is described as the ‘ligand-induced BRET ratio’. […] In this case, data are shown as ‘fluorescence/luminescence’ being the ratio of light emission through the ‘acceptor wavelength window’ over the 400-475 nm emission for a particular cell sample. Unless otherwise stated, BRET signals were measured in 96-well microplates. […]
Cells not pretreated with antagonist were pretreated with PBS instead for the same amount of time. […]

[2] = HEK293, TRHR/Rluc + barr2/Venus + OxR2, ligand 10^−6M, FIG. 4

Compound	ligand-induced eBRET signal (OxR2)	eBRET signal [1, 2]	time for eBRET signal to reach its level [1, 2]	time for eBRET signal to reach plateau ([1]; TRHR/Rluc + HA-OxR2 + EGFP/barr1 or EGFP/barr2, FIG. 7)	time for eBRET signal to reach plateau ([1]; TRHR/Rluc + OxR2 + EGFP/barr1, FIG. 8)	time for eBRET signal to reach plateau ([1]; TRHR/Rluc + OxR2 + EGFP/barr1R169E, FIG. 8) [min]	time for eBRET signal to reach plateau ([1]; TRHR/Rluc + OxR2 + EGFP/barr1 or EGFP/barr2, FIG. 5)	eBRET signal ([1]; TRHR/Rluc + barr2/Venus + OxR2, 10^−6M OxA, FIG. 6)	dose-response Hill slope ([1]; TRHR/Rluc + barr2/Venus + OxR2, FIG. 12)
NC(=O)[C@@H]1CCCN1C(=O)[C@H](Cc1cnc[nH]1)NC(=O)[C@@H]1CCC(=O)N1 [TRH, pGlu-His-Pro-NH2]	No ligand-induced eBRET signal was observed	–	–	–	–	–	–	–	–
OxA: orexin A; known orexin receptor modulator, used as IG3 ligand (modulator) (QPLPDCCRQKTCSCRLYELLHGAGNHAAGILTL; ends and bridges not checked; cysteine pairing not given here; UniProt O43612 34-66, looked up)	–	0.07-0.08	up to 30 minutes	more than 10 minutes	more than 10 minutes	≤ 20	more than 10 minutes	eBRET signal was observed	greater than 1

Reference: patent US20100234417A1, “THYROTROPIN RELEASING HORMONE RECEPTOR-OREXIN RECEPTOR HETERO-DIMERS/-OLIGOMERS” (DIMERIX BIOSCIENCE PTY LTD., priority 2006, published 2010)
